Results from patent US12162890B2 (Novartis AG, priority 2015, dated 2024).

Target: HEK293 cells with stable expression of the GRIN1 gene and tetracycline-inducible expression of the GRIN2B gene (NMDA receptor, NR2B) (Homo sapiens, UniProt Q13224)
Test: Fluo-8 Ca2+ flux assay: reversal of Ro 25-6981-mediated suppression of the Ca2+ response to co-agonist (glutamate/glycine); note: test concentration or dose not given here
Assay type: cell-based
Conditions: reversal of the Ro 25-6981 suppression of the Ca2+ response to co-agonist (glutamate/glycine)

Sequence of HEK293 cells with stable expression of the GRIN1 gene and tetracycline-inducible expression of the GRIN2B gene (NMDA receptor, NR2B) (Q13224 27-1484, other chains not shown): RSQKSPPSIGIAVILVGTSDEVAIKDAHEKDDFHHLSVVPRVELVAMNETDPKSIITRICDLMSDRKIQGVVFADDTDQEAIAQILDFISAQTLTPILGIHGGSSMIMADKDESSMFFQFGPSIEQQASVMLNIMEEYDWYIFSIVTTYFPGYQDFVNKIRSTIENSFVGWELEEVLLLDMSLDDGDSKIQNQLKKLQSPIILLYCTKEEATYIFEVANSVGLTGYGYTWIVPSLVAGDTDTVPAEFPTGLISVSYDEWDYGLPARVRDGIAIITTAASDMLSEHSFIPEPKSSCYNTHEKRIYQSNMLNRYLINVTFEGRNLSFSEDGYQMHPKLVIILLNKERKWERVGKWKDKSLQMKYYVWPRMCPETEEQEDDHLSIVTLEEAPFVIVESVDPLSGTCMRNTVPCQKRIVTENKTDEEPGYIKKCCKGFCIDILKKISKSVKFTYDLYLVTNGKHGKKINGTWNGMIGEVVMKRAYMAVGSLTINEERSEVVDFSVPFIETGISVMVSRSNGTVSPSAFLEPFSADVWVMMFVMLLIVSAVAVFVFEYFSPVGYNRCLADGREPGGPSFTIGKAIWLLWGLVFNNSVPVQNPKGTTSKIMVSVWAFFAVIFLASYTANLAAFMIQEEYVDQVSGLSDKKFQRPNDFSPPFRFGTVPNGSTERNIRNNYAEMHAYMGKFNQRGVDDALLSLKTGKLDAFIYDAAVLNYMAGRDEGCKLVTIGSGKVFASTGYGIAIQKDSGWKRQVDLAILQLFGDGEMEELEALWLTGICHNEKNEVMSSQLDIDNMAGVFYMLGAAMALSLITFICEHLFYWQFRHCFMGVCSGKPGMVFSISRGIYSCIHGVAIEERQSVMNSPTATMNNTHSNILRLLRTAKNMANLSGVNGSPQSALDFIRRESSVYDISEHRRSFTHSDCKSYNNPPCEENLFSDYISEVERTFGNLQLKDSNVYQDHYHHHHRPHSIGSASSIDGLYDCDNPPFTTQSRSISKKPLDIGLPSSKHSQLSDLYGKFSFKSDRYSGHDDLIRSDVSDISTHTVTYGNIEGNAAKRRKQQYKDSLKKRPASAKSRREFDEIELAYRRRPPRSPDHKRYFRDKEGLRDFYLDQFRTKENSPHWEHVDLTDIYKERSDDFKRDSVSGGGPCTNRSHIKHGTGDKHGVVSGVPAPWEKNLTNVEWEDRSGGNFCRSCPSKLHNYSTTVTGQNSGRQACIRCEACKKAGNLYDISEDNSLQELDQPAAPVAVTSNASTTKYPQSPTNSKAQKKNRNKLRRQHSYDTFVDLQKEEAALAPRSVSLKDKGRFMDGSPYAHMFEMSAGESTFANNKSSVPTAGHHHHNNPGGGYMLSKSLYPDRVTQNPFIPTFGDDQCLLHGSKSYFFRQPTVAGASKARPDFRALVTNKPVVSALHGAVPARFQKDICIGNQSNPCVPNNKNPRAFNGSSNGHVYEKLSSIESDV

Row | Compound | Response Recovered (%)
1 | O=C(Cn1ccc2scc(-c3ccc(Cl)c(Cl)c3)c2c1=O)N1CC[C@H](F)C1 [Example 30, (S)-3-(3,4-dichlorophenyl)-5-(2-(3-fluoropyrrolidin-1-yl)-2-oxoethyl)thieno[3,2-c]pyridin-4(5H)-one] | 96
2 | O=C(Cn1ccc2scc(-c3ccc(F)c(Cl)c3)c2c1=O)N1CC2(CCN2)C1 [Example 97, 3-(3-chloro-4-fluorophenyl)-5-(2-oxo-2-(1,6-diazaspiro[3.3]heptan-6-yl)ethyl)thieno[3,2-c]pyridin-4(5H)-one 2,2,2-trifluoroacetate] | 2.8
3 | CC1(F)CN(C(=O)Cn2ccc3scc(-c4cnc(F)c(F)c4)c3c2=O)C1 [Example 139, 3-(5,6-difluoropyridin-3-yl)-5-(2-(3-fluoro-3-methylazetidin-1-yl)-2-oxoethyl)thieno[3,2-c]pyridin-4(5H)-one] | 11
4 | O=C(Cn1cnc2[nH]cc(-c3ccc(F)c(C(F)(F)F)c3)c2c1=O)N1CCC(F)C1 (stereo not drawn) [Example 174, 5-(4-fluoro-3-(trifluoromethyl)phenyl)-3-(2-(3-fluoropyrrolidin-1-yl)-2-oxoethyl)-3H-pyrrolo[2,3-d]pyrimidin-4(7H)-one] | 91
5 | N=C(N)c1cn(CC(=O)N2CCCC2)c(=O)c2c(-c3ccc(F)c(C(F)(F)F)c3)csc12 [Example 113, 3-(4-fluoro-3-(trifluoromethyl)phenyl)-4-oxo-5-(2-oxo-2-(pyrrolidin-1-yl)ethyl)-4,5-dihydrothieno[3,2-c]pyridine-7-carboximidamide] | 47
6 | CC1(N)CN(C(=O)Cn2ccc3scc(-c4ccc(F)c(C(F)(F)F)c4)c3c2=O)C1 [Example 96, 5-(2-(3-amino-3-methylazetidin-1-yl)-2-oxoethyl)-3-(4-fluoro-3-(trifluoromethyl)phenyl)thieno[3,2-c]pyridin-4(5H)-one] | 43
7 | NC(=O)Cn1ccc2[nH]cc(-c3ccc(F)c(Cl)c3)c2c1=O [Example 255, 2-(3-(3-chloro-4-fluorophenyl)-4-oxo-1H-pyrrolo[3,2-c]pyridin-5(4H)-yl)acetamide] | −1
8 | O=C(Cn1ccc2scc(-c3ccc(Cl)c(C(F)(F)F)c3)c2c1=O)N1CC[C@@H](F)C1 [Example 17, (R)-3-(4-chloro-3-(trifluoromethyl)phenyl)-5-(2-(3-fluoropyrrolidin-1-yl)-2-oxoethyl)thieno[3,2-c]pyridin-4(5H)-one] | 99
9 | Cc1ncc(-c2csc3ccn(CC(=O)N4CC(F)(CF)C4)c(=O)c23)cc1Cl [Example 92, 3-(5-chloro-6-methylpyridin-3-yl)-5-(2-(3-fluoro-3-(fluoromethyl)azetidin-1-yl)-2-oxoethyl)thieno[3,2-c]pyridin-4(5H)-one] | 70
10 | O=C(Cn1ccc2scc(-c3ccc(Cl)c(C(F)(F)F)c3)c2c1=O)N1CC[C@H](F)C1 [Example 15, (S)-3-(4-chloro-3-(trifluoromethyl)phenyl)-5-(2-(3-fluoropyrrolidin-1-yl)-2-oxoethyl)thieno[3,2-c]pyridin-4(5H)-one] | 95
11 | C[Si](C)(C)CCOCn1cc(-c2ccc(Cl)c(F)c2)c2c(=O)n(CC(=O)N3CCC(F)C3)ccc21 (stereo not drawn) [Example 202, 3-(4-chloro-3-fluorophenyl)-5-(2-(3-fluoropyrrolidin-1-yl)-2-oxoethyl)-1-((2-(trimethylsilyl)ethoxy)methyl)-1H-pyrrolo[3,2-c]pyridin-4(5H)-one] | 32
12 | N=C(NO)c1cn(CC(=O)N2CCCC2)c(=O)c2c(-c3ccc(F)c(C(F)(F)F)c3)csc12 [Example 108, 3-(4-fluoro-3-(trifluoromethyl)phenyl)-N-hydroxy-4-oxo-5-(2-oxo-2-(pyrrolidin-1-yl)ethyl)-4,5-dihydrothieno[3,2-c]pyridine-7-carboximidamide] | 64
13 | O=C(Cn1cnc2[nH]cc(-c3cnc(Cl)c(C(F)(F)F)c3)c2c1=O)N1CCC(F)C1 (stereo not drawn) [Example 183, 5-(6-chloro-5-(trifluoromethyl)pyridin-3-yl)-3-(2-(3-fluoropyrrolidin-1-yl)-2-oxoethyl)-3H-pyrrolo[2,3-d]pyrimidin-4(7H)-one] | 14
14 | O=C(Cn1cc(N2CCCC2)c2scc(-c3ccc(F)c(C(F)(F)F)c3)c2c1=O)N1CCCC1 [Example 114, 3-(4-fluoro-3-(trifluoromethyl)phenyl)-5-(2-oxo-2-(pyrrolidin-1-yl)ethyl)-7-(pyrrolidin-1-yl)thieno[3,2-c]pyridin-4(5H)-one] | 15

Next, values leading:

Row | Response Recovered (%) | Compound
15 | 4 | O=C(Cn1cnc2[nH]nc(-c3ccc(Cl)c(F)c3)c2c1=O)N1CCCC1 [Example 319, 3-(4-chloro-3-fluorophenyl)-5-(2-oxo-2-(pyrrolidin-1-yl)ethyl)-1H-pyrazolo[3,4-d]pyrimidin-4(5H)-one]
16 | 41 | O=C(Cn1cnc2c(Br)sc(-c3ccc(Cl)c(F)c3)c2c1=O)N1CCCC1 [Example 368, 7-bromo-5-(4-chloro-3-fluorophenyl)-3-(2-oxo-2-(pyrrolidin-1-yl)ethyl)thieno[3,4-d]pyrimidin-4(3H)-one]
17 | 110 | O=C(Cn1ccn2c(C3CC3)nc(-c3ccc(Cl)c(Cl)c3)c2c1=O)N1CC(F)(CF)C1 [Example 440, 3-cyclopropyl-1-(3,4-dichlorophenyl)-7-(2-(3-fluoro-3-(fluoromethyl)azetidin-1-yl)-2-oxoethyl)imidazo[1,5-a]pyrazin-8(7H)-one]
18 | 55 | O=C(Cn1ccc2[nH]cc(-c3ccc(Cl)c(F)c3)c2c1=O)N1CCCC1 [Example 211, 3-(4-chloro-3-fluorophenyl)-5-(2-oxo-2-(pyrrolidin-1-yl)ethyl)-1H-pyrrolo[3,2-c]pyridin-4(5H)-one]
19 | 65 | COCn1cc(-c2ccc(F)c(C(F)(F)F)c2)c2c(=O)n(CC(=O)N3CCC(F)C3)ccc21 (stereo not drawn) [Example 238, 3-(4-fluoro-3-(trifluoromethyl)phenyl)-5-(2-(3-fluoropyrrolidin-1-yl)-2-oxoethyl)-1-(methoxymethyl)-1H-pyrrolo[3,2-c]pyridin-4(5H)-one]
20 | 46 | O=C(Cn1ccc2cccc(-c3ccc(F)c(Cl)c3)c2c1=O)N1CCCC1 [Example 303, 8-(3-chloro-4-fluorophenyl)-2-(2-oxo-2-(pyrrolidin-1-yl)ethyl)isoquinolin-1(2H)-one]
21 | 109 | O=C(Cn1ccc2c(c(-c3ccc(Cl)c(C(F)(F)F)c3)cn2-c2ccccn2)c1=O)N1CCC(F)C1 (stereo not drawn) [Example 224, 3-(4-chloro-3-(trifluoromethyl)phenyl)-5-(2-(3-fluoropyrrolidin-1-yl)-2-oxoethyl)-1-(pyridin-2-yl)-1H-pyrrolo[3,2-c]pyridin-4(5H)-one]
22 | 8 | O=C(Cn1ncc2scc(-c3ccc(F)c(Cl)c3)c2c1=O)N1CC(F)(F)C1 [Example 341, 3-(3-chloro-4-fluorophenyl)-5-(2-(3,3-difluoroazetidin-1-yl)-2-oxoethyl)thieno[2,3-d]pyridazin-4(5H)-one]
23 | 58 | CC1(F)CN(C(=O)Cn2ccn3cnc(-c4ccc(Cl)c(Cl)c4)c3c2=O)C1 [Example 447, 1-(3,4-dichlorophenyl)-7-(2-(3-fluoro-3-methylazetidin-1-yl)-2-oxoethyl)imidazo[1,5-a]pyrazin-8(7H)-one]
24 | 29 | CN(C)CCn1cc(-c2ccc(F)c(C(F)(F)F)c2)c2c(=O)n(CC(=O)N3CCC(F)C3)ccc21 (stereo not drawn) [Example 240]
25 | 47 | O=C(Cn1ccc2[nH]cc(-c3ccc(Cl)c(F)c3)c2c1=O)N1CCC(F)C1 (stereo not drawn) [Example 204, 3-(4-chloro-3-fluorophenyl)-5-(2-(3-fluoropyrrolidin-1-yl)-2-oxoethyl)-1H-pyrrolo[3,2-c]pyridin-4(5H)-one]
26 | 130 | O=C(Cn1ccn2ccc(-c3ccc(F)c(Cl)c3)c2c1=O)N1CC(F)(CF)C1 [Example 402, 8-(3-chloro-4-fluorophenyl)-2-(2-(3-fluoro-3-(fluoromethyl)azetidin-1-yl)-2-oxoethyl)pyrrolo[1,2-a]pyrazin-1(2H)-one]
27 | 66 | CCn1cc(-c2ccc(F)c(C(F)(F)F)c2)c2c(=O)n(CC(=O)N3CCC(F)C3)cnc21 (stereo not drawn) [Example 184]
28 | 110 | CC1(F)CN(C(=O)Cn2ccn3ncc(-c4ccc(F)c(Cl)c4)c3c2=O)C1 [Example 329, 3-(3-chloro-4-fluorophenyl)-5-(2-(3-fluoro-3-methylazetidin-1-yl)-2-oxoethyl)pyrazolo[1,5-a]pyrazin-4(5H)-one]
29 | 50 | O=C(Cn1ccn2ncc(-c3ccc(Cl)c(Cl)c3)c2c1=O)N1CC(F)(F)C1 [Example 325, 3-(3,4-dichlorophenyl)-5-(2-(3,3-difluoroazetidin-1-yl)-2-oxoethyl)pyrazolo[1,5-a]pyrazin-4(5H)-one]
30 | 3 | O=C(Cn1cnc2cccc(-c3ccc(Cl)cc3)c2c1=O)N1CCCC1C(F)(F)F (stereo not drawn) [Example 297, 5-(4-chlorophenyl)-3-(2-oxo-2-(2-(trifluoromethyl)pyrrolidin-1-yl)ethyl)quinazolin-4(3H)-one]
31 | 140 | CC1(F)CN(C(=O)Cn2ccn3ccc(-c4ccc(Cl)c(Cl)c4)c3c2=O)C1 [Example 396, 8-(3,4-dichlorophenyl)-2-(2-(3-fluoro-3-methylazetidin-1-yl)-2-oxoethyl)pyrrolo[1,2-a]pyrazin-1(2H)-one]
32 | 4 | O=C(Cn1cnc2csc(-c3ccc(Cl)c(F)c3)c2c1=O)N1CCC(C(F)(F)F)C1 (stereo not drawn) [Example 365, 5-(4-chloro-3-fluorophenyl)-3-(2-oxo-2-(3-(trifluoromethyl)pyrrolidin-1-yl)ethyl)thieno[3,4-d]pyrimidin-4(3H)-one]
33 | 54 | O=C(Cn1ccn2ncc(-c3ccc(Cl)c(Cl)c3)c2c1=O)N1CCC(F)C1 (stereo not drawn) [Example 327, 3-(3,4-dichlorophenyl)-5-(2-(3-fluoropyrrolidin-1-yl)-2-oxoethyl)pyrazolo[1,5-a]pyrazin-4(5H)-one]
